Results reported in ChEMBL document CHEMBL4049401, “Three-component, one-pot synthesis of anthranilamide Schiff bases bearing 4-aminoquinoline moiety as Mycobacterium tuberculosis gyrase inhibitors” (Bioorg Med Chem Lett, 2017).
Converted amounts (≈) assume the structure as drawn.

Columns and labels:
[1] = n-octanol/water partition coefficient, log P of the compound; assay type: physicochemical
[2] = Cytotoxicity against African green monkey Vero cells assessed as cell viability at 100 uM by MTT assay relative to control; assay type: cell-based; conditions: chlorocebus sabaeus, read-out: Activity
[3] = system: Mycobacterium tuberculosis; assay: Antimycobacterial activity against Mycobacterium tuberculosis H37Rv ATCC 27294 after 5 days by microplate alamar blue assay; assay type: functional; conditions: H37Rv ATCC 27294, 120 h

Structure (SMILES)	logP [1]	viability at 100 µM [2] [%]	MIC [3] [µM]
O=C(NNc1ccnc2cc(Cl)ccc12)c1ccccc1/N=C/c1ccc(Cl)cc1Cl	6.22	87.6	6.25 (≈ 2.94 µg/mL)
CN(C)c1ccc(/C=N/c2ccccc2C(=O)NNc2ccnc3cc(Cl)ccc23)cc1	5.03	88.8	3.12 (≈ 1.39 µg/mL)
COc1cc(/C=N/c2ccccc2C(=O)NNc2ccnc3cc(Cl)ccc23)ccc1Oc1ccnc2cc(Cl)ccc12	7.74	89.5	3.12 (≈ 1.9 µg/mL)
O=C(NNc1ccnc2cc(Cl)ccc12)c1ccccc1/N=C/c1ccc(Br)cc1	5.76	88.5	6.25 (≈ 3 µg/mL)
O=C(NNc1ccnc2cc(Cl)ccc12)c1ccccc1/N=C/c1ccncc1	3.86	85.7	25 (≈ 10 µg/mL)
O=C(NNc1ccnc2cc(Cl)ccc12)c1ccccc1/N=C/c1ccc(O)cc1	4.65	90.1	25 (≈ 10.4 µg/mL)
COc1cc(/C=N/c2ccccc2C(=O)NNc2ccnc3cc(Cl)ccc23)cc(OC)c1OC	4.94	89.4	6.25 (≈ 3.07 µg/mL)
O=C(NNc1ccnc2cc(Cl)ccc12)c1ccccc1/N=C/c1ccc(F)cc1	5.18	90.7	6.25 (≈ 2.62 µg/mL)
O=C(NNc1ccnc2cc(Cl)ccc12)c1ccccc1/N=C/c1cc2ccccc2[nH]c1=O	4.65	91.1	25 (≈ 11.7 µg/mL)
O=C(O)c1cn(C2CC2)c2cc(N3CCNCC3)c(F)cc2c1=O [CIPROFLOXACIN]			12.5 (≈ 4.14 µg/mL)
COc1ccc(/C=N/c2ccccc2C(=O)NNc2ccnc3cc(Cl)ccc23)cc1OC	4.97	89.2	6.25 (≈ 2.88 µg/mL)
NC(=O)c1cnccn1 [PYRAZINAMIDE]	-0.71		3.12 (≈ 0.384 µg/mL)
O=C(NNc1ccnc2cc(Cl)ccc12)c1ccccc1/N=C/c1ccc([N+](=O)[O-])cc1	4.58	88.6	25 (≈ 11.1 µg/mL)
O=C(NNc1ccnc2cc(Cl)ccc12)c1ccccc1/N=C/c1cc2ccccc2nc1Cl	6	94.3	25 (≈ 12.2 µg/mL)
COc1ccc(/C=N/c2ccccc2C(=O)NNc2ccnc3cc(Cl)ccc23)cc1	5	88.9	1.56 (≈ 0.672 µg/mL)
N#Cc1ccc(/C=N/c2ccccc2C(=O)NNc2ccnc3cc(Cl)ccc23)cc1	4.83	87.2	25 (≈ 10.6 µg/mL)
O=C(NNc1ccnc2cc(Cl)ccc12)c1ccccc1/N=C/c1ccccc1Cl	5.5	88.5	25 (≈ 10.9 µg/mL)
O=C(NNc1ccnc2cc(Cl)ccc12)c1ccccc1/N=C/c1cccc(Cl)c1Cl	6.1	89.1	6.25 (≈ 2.94 µg/mL)
O=C(NNc1ccnc2cc(Cl)ccc12)c1ccccc1/N=C/c1ccc(Cl)c(Cl)c1	6.22	90.2	25 (≈ 11.7 µg/mL)
O=C(NNc1ccnc2cc(Cl)ccc12)c1ccccc1/N=C/c1ccc(Cl)cc1	5.62	86.7	3.12 (≈ 1.36 µg/mL)
Cc1ccc(/C=N/c2ccccc2C(=O)NNc2ccnc3cc(Cl)ccc23)cc1	5.31	87.1	0.78 (≈ 0.324 µg/mL)
O=C(NNc1ccnc2cc(Cl)ccc12)c1ccccc1/N=C/C=C/c1ccccc1	5.54	90.2	3.12 (≈ 1.33 µg/mL)
O=C(NNc1ccnc2cc(Cl)ccc12)c1ccccc1/N=C/c1cccs1	4.78	89.5	6.25 (≈ 2.54 µg/mL)
